Converted amounts (≈) assume the structure as drawn.
Assays:
Format in all cases: functional
Enterococcus faecium = assay: Antimicrobial activity against vancomycin-resistant Enterococcus faecium
Streptococcus pneumoniae [1] = assay: Antimicrobial activity against penicillin- and erythromycin-resistant Streptococcus pneumoniae in presence of 2.5% horse blood
Escherichia coli [2] = assay: Antimicrobial activity against Escherichia coli 50
Haemophilus influenzae [3] = assay: Antimicrobial activity against LS2 Efflux knock-out Haemophilus influenzae
Staphylococcus aureus [4] = assay: Antimicrobial activity against Staphylococcus aureus Oxford
Escherichia coli [5] = assay: Antimicrobial activity against Escherichia coli ATCC 25922
Enterococcus faecalis = assay: Antimicrobial activity against vancomycin-susceptible Enterococcus faecalis ATCC 29212
Streptococcus pneumoniae [6] = assay: Antimicrobial activity against penicillin- and erythromycin-resistant Streptococcus pneumoniae
Staphylococcus aureus [7] = assay: Antimicrobial activity against methicillin-sensitive Staphylococcus aureus ATCC 13709
Streptococcus pneumoniae [8] = assay: Antimicrobial activity against erythromycin-susceptible Streptococcus pneumoniae ATCC 49619
Staphylococcus aureus [9] = assay: Antimicrobial activity against methicillin-resistant Staphylococcus aureus
Haemophilus influenzae [10] = assay: Antimicrobial activity against Haemophilus influenzae ATCC 31517 MMSA
Pseudomonas aeruginosa = assay: Antimicrobial activity against Pseudomonas aeruginosa ATCC 27853
Staphylococcus aureus [11] = assay: Antimicrobial activity against vancomycin-susceptible Staphylococcus aureus ATCC 25923
Escherichia coli [12] = assay: Antimicrobial activity against Escherichia coli 49

SMILES	MIC (Enterococcus faecium) [µg/mL]	MIC (Streptococcus pneumoniae [1]) [µg/mL]	MIC (Escherichia coli [2]) [µg/mL]	MIC (Haemophilus influenzae [3]) [µg/mL]	MIC (Staphylococcus aureus [4]) [µg/mL]	MIC (Escherichia coli [5]) [µg/mL]	MIC (Enterococcus faecalis) [µg/mL]	MIC (Streptococcus pneumoniae [6]) [µg/mL]	MIC (Staphylococcus aureus [7]) [µg/mL]	MIC (Streptococcus pneumoniae [8]) [µg/mL]	MIC (Staphylococcus aureus [9]) [µg/mL]	MIC (Haemophilus influenzae [10]) [µg/mL]	MIC (Pseudomonas aeruginosa) [µg/mL]	MIC (Staphylococcus aureus [11]) [µg/mL]	MIC (Escherichia coli [12]) [µg/mL]
CCCC(=O)N1CC(=O)/C(=C(\CCCCc2ccccc2)NC2CC(C)(C)N(C)C(C)(C)C2)C1=O	> 32	> 32	> 32	> 32	> 32	> 32	> 32	> 32	> 32	> 32	> 32	> 32	> 32	> 32	> 32
CCOC(=O)[C@]12CO[C@H](C(C)(C)C)N1C(=O)/C(=C(\C)N1CCN(C3CCCCC3)CC1)C2=O	> 32	> 32	> 32	> 32	> 32	> 32	> 32	> 32	> 32	> 32	> 32	> 32	> 32	> 32	> 32
CCCC(=O)N1CC(=O)/C(=C(\CC23CC4CC(CC(C4)C2)C3)NCCCN2CCOCC2)C1=O	> 64	64	> 32	16 (≈ 33.9 µM)	> 64	> 32	> 64	64 (≈ 136 µM)	> 64	64 (≈ 136 µM)	> 64	> 64	> 32	> 64	> 32
C/C(NCCOc1ccccc1Cl)=C1/C(=O)CNC1=O	> 32	> 32	> 32	> 32	> 32	> 32	> 32	> 32	> 32	> 32	> 32	> 32	> 32	> 32	> 32
CCCCCCCCC/C(NC(C)CCCN(CC)CC)=C1/C(=O)N2[C@@H](C(C)(C)C)OC[C@]2(C(=O)OC)C1=O (stereo not given in full)	8 (≈ 14.6 µM)	16	> 32	> 64	16 (≈ 29.1 µM)	> 32	16 (≈ 29.1 µM)	4 (≈ 7.28 µM)	16 (≈ 29.1 µM)	4 (≈ 7.28 µM)	16 (≈ 29.1 µM)	> 64	> 32	16 (≈ 29.1 µM)	> 32
CCCCCCCCCCC/C(NCCCOC(C)C)=C1\C(=O)[C@@H]2CCCC(=O)N2C1=O	> 64	> 64	> 32	4 (≈ 8.92 µM)	> 64	> 32	> 64	16 (≈ 35.7 µM)	> 64	> 64	> 64	> 64	> 32	> 64	> 32
CCOC(=O)[C@]12CO[C@H](C(C)(C)C)N1C(=O)/C(=C(/CC13CC4CC(CC(C4)C1)C3)NCCCN1CCOCC1)C2=O	> 64	> 64	> 32	8 (≈ 14 µM)	> 64	> 32	> 64	> 64	> 64	> 64	> 64	> 64	> 32	> 64	> 32
CCCCOCCCN/C(C)=C1/C(=O)N2[C@@H](C(C)(C)C)OC[C@]2(C(=O)OCC)C1=O	> 32	> 32	> 32	> 32	> 32	> 32	> 32	> 32	> 32	> 32	> 32	> 32	> 32	> 32	> 32
C/C(NCCOc1ccccc1)=C1/C(=O)[C@@H]2CCCC(=O)N2C1=O	> 32	> 32	> 32	> 32	> 32	> 32	> 32	> 32	> 32	> 32	> 32	> 32	> 32	> 32	> 32
CCCCCC/C(Nc1ccc(N2CCOCC2)cc1)=C1\C(=O)CNC1=O	> 32	> 32	> 32	> 32	> 32	> 32	> 32	> 32	> 32	> 32	> 32	> 32	> 32	> 32	> 32
CCCCCCCCCCCCC/C(Nc1ccccc1)=C1\C(=O)CNC1=O	> 32	> 32	> 32	> 32	> 32	> 32	> 32	> 32	> 32	> 32	> 32	> 32	> 32	> 32	> 32
CCN(CC)CCCC(C)N/C(CCCOc1ccccc1)=C1/C(=O)C(CC(C)C)N(C(=O)c2ccccc2)C1=O (stereo not given)	> 32	> 32	> 32	> 32	> 32	> 32	> 32	> 32	> 32	> 32	> 32	> 32	> 32	> 32	> 32
CC(C)(C)[C@H]1OC[C@@H]2C(=O)/C(=C(/NCCCCN)c3ccccc3)C(=O)N21	> 32	> 32	> 32	> 32	> 32	> 32	> 32	> 32	> 32	> 32	> 32	> 32	> 32	> 32	> 32
CCOC(=O)[C@]12CO[C@H](C(C)(C)C)N1C(=O)/C(=C(/CC13CC4CC(CC(C4)C1)C3)NCC(C)(C)CN(C)C)C2=O	> 32	> 32	> 32	> 32	> 32	> 32	> 32	> 32	> 32	> 32	> 32	> 32	> 32	> 32	> 32
C/C(NCCOc1ccccc1)=C1\C(=O)N2[C@H](C(C)(C)C)OC[C@@]2(C)C1=O (racemic)	1 (≈ 2.68 µM)	2	> 32	< 0.06	8 (≈ 21.5 µM)	> 32	4 (≈ 10.7 µM)	1 (≈ 2.68 µM)	8 (≈ 21.5 µM)	1 (≈ 2.68 µM)	8 (≈ 21.5 µM)	4 (≈ 10.7 µM)	> 32	4 (≈ 10.7 µM)	> 32
C/C(NCCOc1ccccc1)=C1/C(=O)[C@@H]2CO[C@@H](C(C)(C)C)N2C1=O	> 32	> 32	> 32	> 32	> 32	> 32	> 32	> 32	> 32	> 32	> 32	> 32	> 32	> 32	> 32
CCCCCCN/C(=C1/C(=O)CNC1=O)c1ccccc1	> 32	> 32	> 32	> 32	> 32	> 32	> 32	> 32	> 32	> 32	> 32	> 32	> 32	> 32	> 32
CCOC(=O)[C@]12CO[C@H](C(C)(C)C)N1C(=O)/C(=C(\C)NCc1ccc(C)o1)C2=O	> 32	> 32	> 32	> 32	> 32	> 32	> 32	> 32	> 32	> 32	> 32	> 32	> 32	> 32	> 32
CCCC(=O)N1CC(=O)/C(=C(\CC23CC4CC(C)(CC(C)(C4)C2)C3)NCCCN2CCOCC2)C1=O	> 64	32	> 32	8 (≈ 16 µM)	> 64	> 32	> 64	16 (≈ 32 µM)	> 64	16 (≈ 32 µM)	> 64	> 64	> 32	> 64	> 32
CCOC(=O)[C@]12CO[C@H](C(C)(C)C)N1C(=O)/C(=C(/CC13CC4CC(C)(CC(C)(C4)C1)C3)NC(C)CCCN(CC)CC)C2=O (stereo not given in full)	> 32	> 32	> 32	> 32	> 32	> 32	> 32	> 32	> 32	> 32	> 32	> 32	> 32	> 32	> 32
COC(=O)[C@@]12CO[C@@H](C(C)(C)C)N1C(=O)/C(=C(\C)Nc1ccccc1)C2=O	> 32	> 32	> 32	> 32	> 32	> 32	> 32	> 32	> 32	> 32	> 32	> 32	> 32	> 32	> 32
